What was measured:
[1] = Brain penetration studies; type: in vivo; conditions: C57/BL6/J, mouse; mice, s.c. 5 or 50 mg/kg or i.v. 5 mg/kg; Cmax(brain)/Cmax(plasma); read-out: BPR (brain/plasma ratio)
Method: Test compounds were prepared at either 0.5 mg/ml or 5 mg/ml in 30% hydroxypropyl-β-cyclodextrin, 100 mM sodium acetate pH 5.5, 5% DMSO. C57/BL6/J mice were dosed s.c. at 5 mg/kg or 50 mg/kg, or i.v. at 5 mg/kg. Animals were euthanized at pre-dose, 5, 15, 30 min, 1, 2 and 4 hours post-dose and plasma and brain obtained. Three animals per dose per time points were used. The levels of compound in the plasma and brain were determined by standard LC/MS/MS methods. Brain/plasma ratio (BPR) was calculated as the ratio of the Cmax(brain)/Cmax(plasma). The results are shown in Table 5, where IA corresponds to a BPR less than 0.1, D is between 0.1 and 0.2, C is 0.2 to 0.5, B comprises 0.5 to 1 and A is greater than 1.

[2] = Hepatocyte stability and metabolism (parent remaining, acid and OPD formation); type: in vitro ADME; conditions: human hepatocytes; for % left 6H Hum hep: 5 μM; for OPD: OPD formation by LC-MS/MS after phenylglyoxal derivatisation
Method: The inventors have found, however, that formula (I) compound metabolites are substantially free of OPD when formula (I) compounds are subjected to conditions intended to mimic in vivo metabolism pathways. As used herein, the term “substantially free of OPD” means that OPD was not detected by LC-MS/MS after (i) incubating a formula (I) compound with human, monkey, dog and rat hepatocytes and (ii) treating the metabolite milieu with an acidic solution of phenylglyoxal in an organic solvent (this addition leads to quantitative formation of 2-phenylquinoxaline, which can be easily quantified with a low lower limit of quantitation (LLOQ)). See the Examples section.
To assess the stability and metabolism of RGFP compounds and to quantify the metabolites in hepatocytes. This assay was designed to evaluate the metabolism of RGFP compounds, following their incubation with human, monkey, dog and rat hepatocytes by monitoring either parent drug disappearance or metabolite appearance using LC-MS/MS. The results are shown in Table 5 ((% Left in Hep: IA<10%, 50%<A, 50%>B>30%, 30%>C>10%, ND: not determined).
Procedure: Turn on the water-bath heater to 37° C. Take out the KHB buffer and make sure it is at room temp before use. Prepare 2.5 mM concentration of RGFP compound in DMSO stock. Add 10 μL of above DMSO stock to 2490 μL KHB buffer; final concentration of RGFP compound will be 10 μM. Pre-warm 45 ml InVitro HT Medium to 37° C. in a sterile 50 ml conical tube. Add 1.0 mL Torpedo Antibiotic Mix per 45 mL InVitro HT medium. Transfer 13 mL of warm HT medium with Antibiotic Mix into a 15 mL conical tube. Carefully remove the hepatocyte vials from liquid nitrogen (liquid phase). Immediately immerse the vial into a 37° C. water bath. Shake gently until the ice melts entirely. […] Immediately empty contents of the vial into 13 ml of pre-warmed InVitro HT Medium with antibiotics. Rinse the vial with the HT media just transferred the hepatocytes to, in order to ensure complete transfer. Centrifuge the cell suspension at 600 RPM for 5 minutes at room temperature. […] Add 1.0 ml of KHB (at room temperature) buffer to the tube of hepatocyte pellet. Loosen the cell pellet by gently swirling the centrifuge tube. Transfer 100 μL of above solution to a different tube and add 900 μL of KHB buffer to count the cells. Determine the total cell count and the number of viable cells using the Trypan Blue exclusion method. Once the cell count is obtained, multiply the number by 10 (attributing to the dilution factor). Add required volume of KHB buffer to the tube containing hepatocytes such that the final count will be 2 million cells/mL. Dispense 50 μL of 2 million cells/ml to a 96 well plate and then add 50 μl of DMSO stock to respective wells (such that, the concentration of RGFP compounds is 5 μM and number of cells are 100000 in each well). Place the plates on a shaker in a 37° C. incubator with 5% CO2. Separate plates for each time point are advisable (Time points: 0 h, 1 h, 2 h, and 6 h). After each time point, add 100 μL of quenching solution. Quenching solution is an acetonitrile solution containing RGFP531 (10 μM) internal standard, 0.1% formic acid and phenylglyoxol (400 μM). The formic acid and phenylglyoxal is used for the identification and quantification of OPD as mentioned above. Pipette up and down a few times to ensure a complete stop of reaction. Transfer all the solution into a 1.5 ml tube, vortex thoroughly, and centrifuge at 14000 RPM at 4° C. for 5 minutes to precipitate cell debris. Transfer the 150 μL of supernatant to vials for analysis on LC-MS/MS.
LC-MS/MS parameters for RGFP compounds and metabolites including OPD: LC-MS/MS Parameters for API 2000 QTrap: System: HPLC 1100; Column: Gemini C18, 5 μM 4.6×50 mm; Column Temp: Ambient; MS: API 2000 QTrap (MI mode); Mobile Phase A: HPLC water with 0.05% Formic Acid; Mobile Phase B: Acetonitrile with 0.05% Formic Acid.

[3] = Acid stability determination; type: physicochemical; conditions: 0.01 M HCl, 50° C., 100 μM
Method: A 100 μM solution of test compound was prepared by dilution of a 10 mM DMSO stock solution in a 0.01 M solution of HCl in deionized water. Immediately after mixing, an aliquot (100 μL) was sampled and analyzed by HPLC/UV. The area under the compound peak was determined and used as the time zero reference point. The remainder of the acid sample was incubated at 50° C. and samples were taken after 2, 4, and 24 hours of incubation. On a few occasions, samples were taken at 30 rather than 24 hours. These were analyzed by the same HPLC/UV method and the area of the peak corresponding to the test compound was measured. Percent remaining at a given time point was then calculated as the ratio of the area under the peak after incubation to that at time zero times 100. In those cases where a 30 hour time point was recorded, the percent remaining at 24 hours was obtained by interpolation of the percent remaining versus time curve assuming a unimolecular process, i.e. a monoexponential decay. Percent remaining after 24 hours incubation are presented in Table 5 below, where A corresponds to more than 60%, B is between 40 and 60%, C covers 20 to 40% and D means less than 20%.

Row | Kp [1] | % left 6H Hum hep [2] | OPD [2] | Acid Stability % Left 24 hr [3] | SMILES
1 | 0.2 to 0.5 | A (50%<A) | No OPD |  | Nc1ccccc1NC(=O)c1ccc2c(cnn2Cc2cncc(F)c2)c1 [Compound A4, N-(2-aminophenyl)-1-((5-fluoropyridin-3-yl)methyl)-1H-indazole-5-carboxamide]
2 |  | B (50%>B>30%) | No OPD | A (A corresponds to more than 60%) | Nc1cc(F)ccc1NC(=O)c1ccc2c(cnn2Cc2cccnc2)c1 [Compound A6]
3 | 0.2 to 0.5 | B (50%>B>30%) | No OPD | B (B is between 40 and 60%) | Nc1cc(F)ccc1NC(=O)c1ccc2c(cnn2Cc2cncc(F)c2)c1 [Compound A7]
4 |  | A (50%<A) | No OPD | A (A corresponds to more than 60%) | Cc1ccc(Cn2ncc3cc(C(=O)Nc4ccc(F)cc4N)ccc32)c(C)n1 [Compound A8]
5 | > 1 | B (50%>B>30%) | No OPD | A (A corresponds to more than 60%) | Nc1ccccc1NC(=O)c1ccc2c(cnn2Cc2ccc(F)c(F)c2)c1 [Compound A9]
6 | 0.5 to 1 | C (30%>C>10%) | No OPD | B (B is between 40 and 60%) | Nc1cc(F)ccc1NC(=O)c1ccc2c(cnn2CC2CC2)c1 [Compound A12]

The remaining lines, values behind:

Row | SMILES | Kp [1] | % left 6H Hum hep [2] | OPD [2] | Acid Stability % Left 24 hr [3]
7 | Nc1ccccc1NC(=O)c1ccc2c(cnn2Cc2cccnc2)c1 [Compound A1] | 0.2 to 0.5 | A (50%<A) | No OPD | 
8 | Nc1ccccc1NC(=O)c1ccc2c(cnn2Cc2ccccc2)c1 [Compound A2] | > 1 | B (50%>B>30%) | No OPD | B (B is between 40 and 60%)
9 | Cn1cc(Cn2ncc3cc(C(=O)Nc4ccccc4N)ccc32)cn1 [Compound A3] | 0.2 to 0.5 | A (50%<A) | No OPD | 
10 | Cc1ccc(Cn2ncc3cc(C(=O)Nc4ccccc4N)ccc32)c(C)n1 [Compound A5] | 0.2 to 0.5 | B (50%>B>30%) | No OPD | 
11 | Nc1ccccc1NC(=O)c1ccc2nn(Cc3cccnc3)cc2c1 [Compound A13] | < 0.1 | A (50%<A) | No OPD | 
12 | Nc1ccccc1NC(=O)c1ccc2nn(Cc3cncc(F)c3)cc2c1 [Compound A14, N-(2-aminophenyl)-2-((5-fluoropyridin-3-yl)methyl)-2H-indazole-5-carboxamide] | 0.2 to 0.5 | A (50%<A) | No OPD | 
13 | Cc1ccc(Cn2cc3cc(C(=O)Nc4ccccc4N)ccc3n2)c(C)n1 [Compound A15] | < 0.1 | A (50%<A) | No OPD | 
